{"source": "patent EP2628734A2", "about": "“5-AMINO-1,2,4-THIADIAZOLE DERIVATIVES” (Federalnoe Gosudarstvennoe Bydzhetnoe Uchrezhdenie Nauki …, priority 2010, dated 2012)", "tested_on": "P2 synaptosomal fraction from rat brain cortex", "assay": "glutamate-induced uptake of 45Ca2+ isotope into synaptosomes", "assay_type": "cell-based", "excerpt": "Neuroprotective action of new compounds was studied in P2 synaptosomal fraction from rat brain cortex. 5-amino-3-(2-nitroxypropyl)-1,2,4-thiadiazole derivatives were studied in the test on glutamate-induced uptake of ^45Ca^2+ isotope into synaptosomes.", "note": "pIC50: −log10 of the molar value.", "data": [{"smiles": "CC(Cc1nsc(N2CCN(c3ccccn3)CC2)n1)O[N+](=O)[O-]", "note": "(centres unmarked) [1-[3-(2-Nitroxypropyl)-[1,2,4]-thiadiazol-5-yl]-4-pyridin-2-yl-piperazine]", "values": [{"measurement": "pIC50", "setting": "glutamate-induced uptake of ^45Ca^2+ into synaptosomes", "result": 4.78}, {"measurement": "inhibition at 100 µM", "setting": "glutamate-induced uptake, concentration of 100 µM, read-out: inhibition of the uptake of ^45Ca^2+ into synaptosomes vs. a control", "result": 98, "unit": "%"}]}]}
